Assay results published in patent publication EP0570197A1, “Hydroxylamine derivatives” (ZENECA LIMITED, priority 1992, dated 1993).

Tests used:
5-LO [1] = target: T1, 5-LO (Homo sapiens, UniProt P09917); assay: Test a): in vitro heparinised human blood challenged with calcium ionophore A23187, radioimmunoassay of LTB₄; format: cell-based; settings: heparinised human blood, A23187 challenge; read-out: IC₅₀ against LTB₄ in test a)
T1 construct: incubating a test compound with heparinised human blood, prior to challenge with the calcium ionophore A23187; endogenous in cells; host or cells: human whole blood (blood cells), heparinised
T1 sequence (P09917 1-674): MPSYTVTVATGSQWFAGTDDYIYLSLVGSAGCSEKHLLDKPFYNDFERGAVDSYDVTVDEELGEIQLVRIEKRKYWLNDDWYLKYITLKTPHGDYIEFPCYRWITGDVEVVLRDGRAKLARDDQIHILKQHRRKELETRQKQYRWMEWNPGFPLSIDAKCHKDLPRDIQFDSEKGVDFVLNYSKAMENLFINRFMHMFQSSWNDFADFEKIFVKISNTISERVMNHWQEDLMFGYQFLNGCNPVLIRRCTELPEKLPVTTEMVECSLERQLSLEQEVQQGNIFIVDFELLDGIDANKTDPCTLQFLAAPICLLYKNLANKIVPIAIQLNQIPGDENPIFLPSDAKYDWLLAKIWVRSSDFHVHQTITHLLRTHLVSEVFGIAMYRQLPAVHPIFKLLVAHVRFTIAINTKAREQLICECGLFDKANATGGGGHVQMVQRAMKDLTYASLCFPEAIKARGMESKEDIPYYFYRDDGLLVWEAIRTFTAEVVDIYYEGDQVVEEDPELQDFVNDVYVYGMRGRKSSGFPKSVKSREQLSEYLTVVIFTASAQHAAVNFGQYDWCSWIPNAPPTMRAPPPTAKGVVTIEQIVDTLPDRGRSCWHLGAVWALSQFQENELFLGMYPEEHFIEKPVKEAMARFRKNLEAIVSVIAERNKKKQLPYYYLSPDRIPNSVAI
From the text: As stated previously, the compounds of the formula I are inhibitors of the enzyme 5-LO. […] J. Pharmacol., 1985, 84, 34P) which involve the use of a protein-LTB₄ conjugate produced using the procedure of Young et alia (Prostaglandins, 1983, 26(4), 605-613). The effects of a test compound on the enzyme cyclooxygenase (which is involved in the alternative metabolic pathway for arachidonic acid and gives rise to prostaglandins, thromboxanes and related metabolites) may be measured at the same time using the specific radioimmunoassay for thromboxane B₂(TxB₂) described by Carey and Forder (see above). This test provides an indication of the effects of a test compound against 5-LO and also cyclooxygenase in the presence of blood cells and proteins. It permits the selectivity of the inhibitory effect on 5-LO or cyclooxygenase to be assessed. • b) An ex vivo assay system, which is a variation of test a) above, involving administration to a group of rats of a test compound (usually orally as the suspension produced when a solution of the test compound in dimethylsulphoxide is added to carboxymethylcellulose), blood collection, heparinisation, challenge with A23187 and radioimmunoassay of LTB₄ and TxB₂. This test provides an indication of the bioavailability of a test compound as an inhibitor of 5-LO or cyclooxygenase. • c) An in vivo system involving measuring the effects of a test compound administered orally against the liberation of LTB₄ induced by zymosan within an air pouch generated within the subcutaneous tissue of the back of male rats. The rats are anaesthetised and air pouches are formed by the injection of sterile air (20 ml). A further injection of air (10 ml) is similarly given after 3 days. At 6 days after the initial air injection the test compound is administered (usually orally as the suspension produced when a solution of the test compound in dimethylsulphoxide is added to hydroxypropylmethylcellulose), followed by the intrapouch injection of zymosan (lml of a 1% suspension in physiological saline). […]

5-LO [2] = assay: Test c): in vivo zymosan-induced LTB₄ liberation in a subcutaneous air pouch; set-up: species or system male rats; settings: rats killed after 3 hours
From the text: As stated previously, the compounds of the formula I are inhibitors of the enzyme 5-LO. […] J. Pharmacol., 1985, 84, 34P) which involve the use of a protein-LTB₄ conjugate produced using the procedure of Young et alia (Prostaglandins, 1983, 26(4), 605-613). The effects of a test compound on the enzyme cyclooxygenase (which is involved in the alternative metabolic pathway for arachidonic acid and gives rise to prostaglandins, thromboxanes and related metabolites) may be measured at the same time using the specific radioimmunoassay for thromboxane B₂(TxB₂) described by Carey and Forder (see above). This test provides an indication of the effects of a test compound against 5-LO and also cyclooxygenase in the presence of blood cells and proteins. It permits the selectivity of the inhibitory effect on 5-LO or cyclooxygenase to be assessed. • b) An ex vivo assay system, which is a variation of test a) above, involving administration to a group of rats of a test compound (usually orally as the suspension produced when a solution of the test compound in dimethylsulphoxide is added to carboxymethylcellulose), blood collection, heparinisation, challenge with A23187 and radioimmunoassay of LTB₄ and TxB₂. […]

COC1(c2cc(F)cc(Sc3ccc(C(C)ONC(C)=O)cc3)c2)CCOCC1 (stereo not drawn) [Example 2, 4-[5-fluoro-3-(4-methoxytetrahydropyran-4-yl)phenylthio]-α-methylbenzyl acetohydroxamate]
IC50 (5-LO [1]): 190 nM

COC1(c2cc(F)cc(Sc3ccc(C(C)ONC(N)=O)cc3)c2)CCOCC1 (stereo not drawn) [Example 4, N-{4-[5-fluoro-3-(4-methoxytetrahydropyran-4-yl)phenylthio]-α-methylbenzyloxy}urea]
IC50 (5-LO [1]): 310 nM

CCN(CC)OC(C)c1ccc(Sc2cc(F)cc(C3(OC)CCOCC3)c2)cc1 (stereo not drawn) [Example 5, N,N-diethyl-O-{4-[5-fluoro-3-(4-methoxytetrahydropyran-4-yl)phenylthio]-α-methylbenzyl}hydroxylamine]
IC50 (5-LO [1]): 150 nM
oral ED₅₀ versus LTB₄ in test c) (5-LO [2]): approximately 1.5 mg/kg
